Measured values taken from ChEMBL document CHEMBL1268993, “Tri- and tetrasubstituted imidazoles as p38α mitogen-activated protein kinase inhibitors” (Bioorg Med Chem Lett, 2010).
pIC50: −log10 of the molar value.

Biological target: Mitogen-activated protein kinase 14 (Homo sapiens, UniProt Q16539)
Test: Inhibition of p38alpha by immunosorbent based assay

Sequence of Mitogen-activated protein kinase 14 (Q16539 whole entry): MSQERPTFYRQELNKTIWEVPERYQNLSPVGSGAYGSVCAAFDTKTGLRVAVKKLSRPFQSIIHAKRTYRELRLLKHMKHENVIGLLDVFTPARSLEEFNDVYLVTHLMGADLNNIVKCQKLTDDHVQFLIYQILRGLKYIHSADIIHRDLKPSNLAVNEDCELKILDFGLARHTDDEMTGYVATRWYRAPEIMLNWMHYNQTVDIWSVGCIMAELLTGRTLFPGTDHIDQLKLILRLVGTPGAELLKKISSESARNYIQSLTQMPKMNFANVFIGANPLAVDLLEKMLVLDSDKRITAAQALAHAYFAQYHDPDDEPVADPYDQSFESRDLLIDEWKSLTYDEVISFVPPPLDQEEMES

Compound	pIC50
CSc1nc(-c2ccc(F)cc2)c(-c2ccnc(NC(C)=O)c2)n1CCCl	6.82
CSc1nc(-c2ccc(F)cc2)c(-c2ccnc(NC(C)=O)c2)n1C1CCCCC1	6.10
CSc1nc(-c2ccc(F)cc2)c(-c2ccnc(NC(=O)C(C)c3ccc(CC(C)C)cc3)c2)[nH]1 (centres undefined)	7.05
CSc1nc(-c2ccc(F)cc2)c(-c2ccnc(NC(=O)C3CCCC3)c2)n1C	6.82
CSc1nc(-c2ccc(F)cc2)c(-c2ccnc(NC(=O)COc3ccc(Cl)cc3Cl)c2)[nH]1	6.80
CSc1nc(-c2ccc(F)cc2)c(-c2ccnc(NC(C)=O)c2)n1CCO	6.96
CSc1nc(-c2ccc(F)cc2)c(-c2ccnc(NC(C)=O)c2)n1CCC(=O)N1CCCC1	5.94
C=CC(=O)Nc1cc(-c2c(-c3ccc(F)cc3)nc(SC)n2CCOC)ccn1	6.77
CSc1nc(-c2ccc(F)cc2)c(-c2ccnc(NC(C)=O)c2)n1CCC(=O)O	5.65
COCCn1c(SC)nc(-c2ccc(F)cc2)c1-c1ccnc(NC(C)=O)c1	6.96
COCCn1c(SC)nc(-c2ccc(F)cc2)c1-c1ccnc(NC(=O)CC(F)(F)F)c1	6.31
CCC(CC)n1c(SC)nc(-c2ccc(F)cc2)c1-c1ccnc(NC(C)=O)c1	6.24
CSc1nc(-c2ccc(F)cc2)c(-c2ccnc(NC(C)=O)c2)n1CCCC(=O)O	5.79
COc1ccc(/C=C/C(=O)Nc2cc(-c3c(-c4ccc(F)cc4)nc(SC)n3C)ccn2)c(OC)c1	6.55
CSc1nc(-c2ccc(F)cc2)c(-c2ccnc(NC(C)=O)c2)n1C(CCO)CCO	5.21
CSc1nc(-c2ccnc(NC(=O)Cc3ccc(F)cc3)c2)c(-c2ccc(F)cc2)[nH]1	8.05
CSc1nc(-c2ccc(F)cc2)c(-c2ccnc(NC(C)=O)c2)n1C(CO)CO	5.20
CSc1nc(-c2ccc(F)cc2)c(-c2ccnc(NC(C)=O)c2)n1CC(=O)N1CCOCC1	6.55
COc1ccc(/C=C/C(=O)Nc2cc(-c3[nH]c(SC)nc3-c3ccc(F)cc3)ccn2)cc1	8.00
CSc1nc(-c2ccc(F)cc2)c(-c2ccnc(NC(C)=O)c2)n1CCCI	7.72

Compound	pIC50
CSc1nc(-c2ccc(F)cc2)c(-c2ccnc(NC(=O)Cc3ccc(F)cc3)c2)n1C	6.89
CSc1nc(-c2ccc(F)cc2)c(-c2ccnc(NC(=O)C3=Cc4ccccc4OC3)c2)[nH]1	7.57
CSc1nc(-c2ccc(F)cc2)c(-c2ccnc(NC(C)=O)c2)n1C1CCOCC1	6.11
CSc1nc(-c2ccc(F)cc2)c(-c2ccnc(NC(=O)Cc3ccc(Cl)cc3)c2)n1C	7.66
CSc1nc(-c2ccc(F)cc2)c(-c2ccnc(NC(C)=O)c2)n1CCCO	6.82
CSc1nc(-c2ccc(F)cc2)c(-c2ccnc(NC(C)=O)c2)n1[C@H]1CC[C@H](O)CC1	6.49
CCn1c(SC)nc(-c2ccc(F)cc2)c1-c1ccnc(NC(=O)/C=C/c2ccc(OC)cc2OC)c1	7.42
CCC(=O)Nc1cc(-c2c(-c3ccc(F)cc3)nc(SC)n2CCOC)ccn1	6.74
CSc1nc(-c2ccc(F)cc2)c(-c2ccnc(NC(=O)C3CC3)c2)n1C	6.77
CSc1nc(-c2ccc(F)cc2)c(-c2ccnc(NC(=O)/C(F)=C/c3ccccc3)c2)[nH]1	7.57
CSc1nc(-c2ccc(F)cc2)c(-c2ccnc(NC(C)=O)c2)n1CCCF	6.74
CSc1nc(-c2ccc(F)cc2)c(-c2ccnc(NC(=O)/C=C/c3c(Cl)cccc3Cl)c2)n1C	6.77
CCn1c(SC)nc(-c2ccc(F)cc2)c1-c1ccnc(NC(=O)Cc2ccc(F)cc2)c1	7.03
CSc1nc(-c2ccc(F)cc2)c(-c2ccnc(NC(C)=O)c2)n1CCC(=O)N1CCOCC1	5.80
CSc1nc(-c2ccc(F)cc2)c(-c2ccnc(NC(C)=O)c2)n1C1CC1	6.40
COC(=O)CCn1c(SC)nc(-c2ccc(F)cc2)c1-c1ccnc(NC(C)=O)c1	6.48
CSc1nc(-c2ccc(F)cc2)c(-c2ccnc(NC(=O)/C=C/c3c(Cl)cccc3Cl)c2)[nH]1	8.52
CSc1nc(-c2ccc(F)cc2)c(-c2ccnc(NC(C)=O)c2)n1CCCCl	7.77
COCCn1c(SC)nc(-c2ccc(F)cc2)c1-c1ccnc(NC(=O)c2cccs2)c1	6.62
CSc1nc(-c2ccc(F)cc2)c(-c2ccnc(NC(C)=O)c2)n1CCCCCl	6.74

Compound	pIC50
CSc1nc(-c2ccc(F)cc2)c(-c2ccnc(NC(=O)COc3ccc(Cl)cc3)c2)[nH]1	7.00
CSc1nc(-c2ccc(F)cc2)c(-c2ccnc(NC(=O)c3cc4ccccc4o3)c2)[nH]1	7.28
CSc1nc(-c2ccc(F)cc2)c(-c2ccnc(NC(=O)COc3cccc(Cl)c3Cl)c2)[nH]1	6.80
CSc1nc(-c2ccc(F)cc2)c(-c2ccnc(NC(C)=O)c2)n1CCCCC(=O)O	6.11
CSc1nc(-c2ccc(F)cc2)c(-c2ccnc(NC(C)=O)c2)n1CC(O)CO (centres undefined)	5.83
COc1ccc(/C=C/C(=O)Nc2cc(-c3c(-c4ccc(F)cc4)nc(SC)n3C)ccn2)cc1	7.74
CSc1nc(-c2ccc(F)cc2)c(-c2ccnc(NC(=O)c3ccco3)c2)[nH]1	7.89
CCN(CC)C(=O)Cn1c(SC)nc(-c2ccc(F)cc2)c1-c1ccnc(NC(C)=O)c1	7.22
CCn1c(SC)nc(-c2ccc(F)cc2)c1-c1ccnc(NC(=O)/C=C/c2c(Cl)cccc2Cl)c1	7.00
CSc1nc(-c2ccc(F)cc2)c(-c2ccnc(NC(C)=O)c2)n1CCCCO	6.85
CSc1nc(-c2ccc(F)cc2)c(-c2ccnc(NC(C)=O)c2)n1CCC(=O)N1CCCCC1	5.65
CCOC(=O)CCn1c(SC)nc(-c2ccc(F)cc2)c1-c1ccnc(NC(C)=O)c1	6.36
CCn1c(SC)nc(-c2ccc(F)cc2)c1-c1ccnc(NC(=O)/C=C/c2ccc(OC)cc2)c1	7.12
CSc1nc(-c2ccc(F)cc2)c(-c2ccnc(NC(=O)/C=C/c3ccc(C)cc3)c2)[nH]1	7.49
CSc1nc(-c2ccc(F)cc2)c(-c2ccnc(NC(=O)c3ccc(-c4ccccc4)cc3)c2)[nH]1	7.00
CSc1nc(-c2ccc(F)cc2)c(-c2ccnc(NC(=O)c3ccc(C)c(F)c3)c2)[nH]1	7.85
CCN(CC)C(=O)CCn1c(SC)nc(-c2ccc(F)cc2)c1-c1ccnc(NC(C)=O)c1	5.92
CSc1nc(-c2ccc(F)cc2)c(-c2ccnc(NC(=O)CCc3ccc(C(C)(C)C)cc3)c2)[nH]1	6.89
CSc1nc(-c2ccc(F)cc2)c(-c2ccnc(NC(C)=O)c2)n1CCCBr	7.57
